Data set [1] is described as follows: Aqueous solubility of salt polymorphs. The note with it: water, 25 °C, Aqueous Solubility at 25-30° C. (mg/ml).
Data set [2] can be described thus: Percent relative humidity stability study. It is filed as physicochemical.
[3] abbreviates: solid kept for 20 days in 78% relative humidity.

Read-outs that look alike come from different tables or passages of the source.

Regarding `COc1c(N2CCC(N)C(C)(C)C2)c(F)cc2c(=O)c(C(=O)O)cn(C3CC3)c12.CS(=O)(=O)O` (racemic) [(±) B-1, (±)-1-cyclopropyl-6-fluoro-8-methoxy-7-(4-amino-3,3-dimethylpiperidin-1-yl)-1,4-dihydro-4-oxo-quinoline-3-carboxylic acid mesylate], the solubility in data set [1] is 80 to 200 mg/mL.
Turning to `COc1c(N2CC[C@H](N)C(C)(C)C2)c(F)cc2c(=O)c(C(=O)O)cn(C3CC3)c12.Cl` [(−) A-2, S-(−)-1-cyclopropyl-6-fluoro-8-methoxy-7-(4-amino-3,3-dimethylpiperidin-1-yl)-1,4-dihydro-4-oxo-quinoline-3-carboxylic acid hydrochloride], in data set [2], the “polymorph change on storage (Powder X-ray Diffraction spectrum and aqueous solubility change)” value was “changed to polymorph A-3”; the “thermodynamic stability of polymorph” value is reported as “thermodynamically stable”.
Regarding `COc1c(N2CCC(N)C(C)(C)C2)c(F)cc2c(=O)c(C(=O)O)cn(C3CC3)c12.Cl` (racemic) [(±) A-1, (±)-1-cyclopropyl-6-fluoro-8-methoxy-7-(4-amino-3,3-dimethylpiperidin-1-yl)-1,4-dihydro-4-oxo-quinoline-3-carboxylic acid hydrochloride], the “polymorph change on storage (Powder X-ray Diffraction spectrum and aqueous solubility change)” value in data set [2] (setting [3]) is listed as “changed to polymorph A-2”.
In the case of `COc1c(N2CC[C@@H](N)C(C)(C)C2)c(F)cc2c(=O)c(C(=O)O)cn(C3CC3)c12.Cl` [(+) A-2, R-(+)-1-cyclopropyl-6-fluoro-8-methoxy-7-(4-amino-3,3-dimethylpiperidin-1-yl)-1,4-dihydro-4-oxo-quinoline-3-carboxylic acid hydrochloride], in data set [2] (from percent relative humidity stability study and aqueous solubility data), the “thermodynamic stability of polymorph” value is “thermodynamically stable”.
Take `COc1c(N2CC[C@@H](N)C(C)(C)C2)c(F)cc2c(=O)c(C(=O)O)cn(C3CC3)c12.Cl` [(+) A-3, R-(+)-1-cyclopropyl-6-fluoro-8-methoxy-7-(4-amino-3,3-dimethylpiperidin-1-yl)-1,4-dihydro-4-oxo-quinoline-3-carboxylic acid hydrochloride]: the “polymorph change on storage (Powder X-ray Diffraction spectrum and aqueous solubility change)” value in data set [2] (setting [3]) was “changed to polymorph A-2”.
Take `COc1c(N2CC[C@@H](N)C(C)(C)C2)c(F)cc2c(=O)c(C(=O)O)cn(C3CC3)c12.CS(=O)(=O)O` [(+) B-1, R-(+)-1-cyclopropyl-6-fluoro-8-methoxy-7-(4-amino-3,3-dimethylpiperidin-1-yl)-1,4-dihydro-4-oxo-quinoline-3-carboxylic acid mesylate]: the solubility in data set [1] was in the range of 80 to 200 mg/mL.
As to `COc1c(N2CC[C@H](N)C(C)(C)C2)c(F)cc2c(=O)c(C(=O)O)cn(C3CC3)c12.Cl` [(−) A-3, S-(−)-1-cyclopropyl-6-fluoro-8-methoxy-7-(4-amino-3,3-dimethylpiperidin-1-yl)-1,4-dihydro-4-oxo-quinoline-3-carboxylic acid hydrochloride], in data set [2], the “thermodynamic stability of polymorph” value was “thermodynamically stable”.
On to `COc1c(N2CC[C@H](N)C(C)(C)C2)c(F)cc2c(=O)c(C(=O)O)cn(C3CC3)c12.Cl` [(−) A-1, S-(−)-1-cyclopropyl-6-fluoro-8-methoxy-7-(4-amino-3,3-dimethylpiperidin-1-yl)-1,4-dihydro-4-oxo-quinoline-3-carboxylic acid hydrochloride], for which the “polymorph change on storage (Powder X-ray Diffraction spectrum and aqueous solubility change)” value in data set [2] is “changed to polymorph A-3”.
`COc1c(N2CC[C@H](N)C(C)(C)C2)c(F)cc2c(=O)c(C(=O)O)cn(C3CC3)c12.Cl` [(−) A-4, S-(−)-1-cyclopropyl-6-fluoro-8-methoxy-7-(4-amino-3,3-dimethylpiperidin-1-yl)-1,4-dihydro-4-oxo-quinoline-3-carboxylic acid hydrochloride]: the “polymorph change on storage (Powder X-ray Diffraction spectrum and aqueous solubility change)” value in data set [2] is on record as “changed to polymorph A-3”.
On to `COc1c(N2CCC(N)C(C)(C)C2)c(F)cc2c(=O)c(C(=O)O)cn(C3CC3)c12.Cl` (racemic) [(±) A-3, (±)-1-cyclopropyl-6-fluoro-8-methoxy-7-(4-amino-3,3-dimethylpiperidin-1-yl)-1,4-dihydro-4-oxo-quinoline-3-carboxylic acid hydrochloride], for which, in data set [2] (setting [3]), the “polymorph change on storage (Powder X-ray Diffraction spectrum and aqueous solubility change)” value is “changed to polymorph A-2”.
On to `COc1c(N2CC[C@@H](N)C(C)(C)C2)c(F)cc2c(=O)c(C(=O)O)cn(C3CC3)c12.Cl` [(+) A-1, R-(+)-1-cyclopropyl-6-fluoro-8-methoxy-7-(4-amino-3,3-dimethylpiperidin-1-yl)-1,4-dihydro-4-oxo-quinoline-3-carboxylic acid hydrochloride], for which, in data set [2] (setting [3]), the “polymorph change on storage (Powder X-ray Diffraction spectrum and aqueous solubility change)” value is reported as “changed to polymorph A-2”.

The values above are taken from patent US7538221B2, “Polymorphs of racemic, dextrorotatory, and levorotatory enantioners of 1-cyclopropyl-6-fluoro-8-methoxy-7-(4-amino-3,3-dimethylpiperidin-1-yl)-1,4-dihydro-4-oxo-quinoline-3-carboxylic acid hydrochloride and mesylate salts” (The Company of Wockhardt Limited, priority 2003, dated 2009).
